Results taken from US6737383B1, “Herbicidal oxadiazolidines” (priority 1999, dated 2004).

Legend:
blackgrass = assay: Test E blackgrass; assay type: in vivo, Alopecurus myosuroides; settings: Preemergence
pigweed = assay: Test B pre/postemergence pigweed; assay type: in vivo, Amaranthus retroflexus
Method in brief: (§1)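 Herbicidal effect was estimated by eye on a ten-point control scale after plants spent twelve to sixteen days in a greenhouse following soil or foliar treatment. Foliar sprays targeted plants at one to four leaves; all doses were formulated in a non-phytotoxic solvent with surfactant.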

sugar beet = assay: Test B pre/postemergence sugar beet; assay type: in vivo, Beta vulgaris; settings: for Sugarbeets plant response rating (0 to 10 scale): 0 is no effect
Method in brief: as §1

winter wheat [1] = assay: Test E winter wheat; assay type: in vivo, Triticum aestivum; settings: Preemergence
winter barley = assay: Test E winter barley; assay type: in vivo, Hordeum vulgare; settings: Preemergence
wild oat = assay: Test E wild oat; assay type: in vivo, Avena fatua; settings: Preemergence
green foxtail = assay: Test E green foxtail; assay type: in vivo, Setaria viridis; settings: Preemergence
winter wheat [2] = assay: Test E winter wheat; assay type: in vivo, Triticum aestivum; settings: Postemergence
Method in brief: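 Postemergence: spray at 1–4 leaf stage, soil 60:40 sandy loam:potting mix; solvent + surfactant formulation; greenhouse 21–28 d; visual injury vs untreated controls.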

Italian ryegrass = assay: Test E Italian ryegrass; assay type: in vivo, Lolium multiflorum; settings: Preemergence
rape = assay: Test B pre/postemergence rape; assay type: in vivo, Brassica napus
Method in brief: as §1

[3] = Rate 1000 g/ha, 0 to 100 scale where 0 is no effect and 100 is complete control
[4] = Postemergence, Rate 62 g/ha, scale 0 to 10, 0 is no effect, 10 is complete control
[5] = Postemergence, Rate 125 g/ha, scale of 0 to 10 where 0 is no effect and 10 is complete control
[6] = Postemergence, Rate 250 g/ha, scale 0 to 10, 0 no effect, 10 complete control
[7] = Preemergence, Rate 62 g/ha, scale 0 to 10 (0 no effect, 10 complete control)
[8] = Preemergence, Rate 125 g/ha, scale 0 to 10 (0 no effect, 10 complete control)
[9] = Preemergence, Rate 250 g/ha, scale of 0 to 10 where 0 is no effect and 10 is complete control
[10] = Preemergence, Rate 500 g/ha, scale 0 (no effect) to 10 (complete control)
[11] = Rate 500 g/ha, Postemergence, scale 0 to 10, 0 no effect, 10 complete control
[12] = Rate 250 g/ha, 0 to 100 scale (0 no effect, 100 complete control)
[13] = Rate 1000 g/ha, 0 to 100 scale, 0 is no effect and 100 is complete control
[14] = Rate 62 g/ha, 0 to 100 scale, 0 no effect, 100 complete control
[15] = Rate 125 g/ha, 0 to 100 scale (0 no effect, 100 complete control)
[16] = Preemergence, Rate 500 g/ha, scale 0 to 10 (0 no effect, 10 complete control)
[17] = Rate 62 g/ha, Postemergence, scale of 0 to 10 where 0 is no effect and 10 is complete control
[18] = Rate 250 g/ha, Postemergence, scale 0 to 10, 0 is no effect, 10 is complete control
[19] = Preemergence, Rate 125 g/ha, 10 is complete control
[20] = Rate 500 g/ha, 0 to 100 scale where 0 is no effect and 100 is complete control
[21] = Preemergence, Rate 250 g/ha, scale 0 to 10, 0 is no effect, 10 is complete control
[22] = Rate 500 g/ha, Postemergence, scale 0 to 10
[23] = Preemergence, Rate 62 g/ha, scale of 0 to 10 where 0 is no effect and 10 is complete control

Cc1ccccc1Cn1c(=O)on(C(=O)N(c2ccc(F)cc2)C(C)C)c1=O [Compound 88]
Plant response rating, Blackgrass (blackgrass; Rate 250 g/ha, 0 to 100 scale): 50
Plant response rating, Blackgrass (blackgrass; [3]): 50
Redroot pigweed plant response rating (pigweed; [4]): 3
Redroot pigweed plant response rating (pigweed; [5]): 3
Redroot pigweed plant response rating (pigweed; [6]): 3
Redroot pigweed plant response rating (pigweed; [7]): 9
Plant response rating, Redroot pigweed (pigweed; [8]): 10
Plant response rating, Redroot pigweed (pigweed; [9]): 10
Redroot pigweed plant response rating (pigweed; [10]): 10
Redroot pigweed plant response rating (pigweed; [11]): 5
Sugarbeets plant response rating (sugar beet; [4]): 3
Sugarbeets plant response rating (sugar beet; [5]): 5
Sugarbeets plant response rating (sugar beet; [6]): 7
Sugarbeets plant response rating (sugar beet; [7]): 2
Plant response rating, Sugarbeets (sugar beet; [8]): 3
Plant response rating, Sugarbeets (sugar beet; [9]): 6
Sugarbeets plant response rating (sugar beet; [10]): 8
Sugarbeets plant response rating (sugar beet; [11]): 7
Plant response rating, Wheat (winter) (winter wheat [1]; Rate 250 g/ha, 0 to 100 scale): 0
Plant response rating, Wheat (winter) (winter wheat [1]; [3]): 10
Plant response rating, Barley (winter) (winter barley; Rate 250 g/ha, 0 to 100 scale): 0
Plant response rating, Barley (winter) (winter barley; [3]): 0
Plant response rating, Wild oat (wild oat; [3]): 20
Plant response rating, Green foxtail (green foxtail; Rate 250 g/ha, 0 to 100 scale): 60
Plant response rating, Green foxtail (green foxtail; [3]): 85
Plant response rating, Wheat (winter) (winter wheat [2]; [12]): 0
Plant response rating, Wheat (winter) (winter wheat [2]; [13]): 10
Plant response rating, I. Ryegrass (Italian ryegrass; Rate 250 g/ha, 0 to 100 scale): 10
Plant response rating, I. Ryegrass (Italian ryegrass; [3]): 50
Rape plant response rating (rape; [4]): 0
Rape plant response rating (rape; [5]): 0
Rape plant response rating (rape; [6]): 0
Rape plant response rating (rape; [7]): 0
Plant response rating, Rape (rape; [8]): 0
Plant response rating, Rape (rape; [9]): 0
Rape plant response rating (rape; [10]): 0
Rape plant response rating (rape; [11]): 3

CC(C)N(C(=O)n1oc(=O)n(C2CCCCC2)c1=O)c1ccc(Cl)cc1 [Compound 111]
Plant response rating, Blackgrass (blackgrass; [14]): 0
Plant response rating, Blackgrass (blackgrass; [15]): 0
Plant response rating, Blackgrass (blackgrass; Rate 250 g/ha, 0 to 100 scale): 0
Redroot pigweed plant response rating (pigweed; [5]): 3
Redroot pigweed plant response rating (pigweed; [7]): 3
Plant response rating, Redroot pigweed (pigweed; [8]): 6
Plant response rating, Redroot pigweed (pigweed; [9]): 8
Redroot pigweed plant response rating (pigweed; [16]): 8
Redroot pigweed plant response rating (pigweed; [17]): 3
Plant response rating, Redroot pigweed (pigweed; [18]): 4
Redroot pigweed plant response rating (pigweed; [11]): 6
Sugarbeets plant response rating (sugar beet; [5]): 3
Sugarbeets plant response rating (sugar beet; [7]): 0
Sugarbeets plant response rating (0 to 10 scale) (sugar beet; [19]): 0
Plant response rating, Sugarbeets (sugar beet; [9]): 3
Sugarbeets plant response rating (sugar beet; [16]): 4
Sugarbeets plant response rating (sugar beet; [17]): 2
Plant response rating, Sugarbeets (sugar beet; [18]): 3
Sugarbeets plant response rating (sugar beet; [11]): 4
Plant response rating, Wheat (winter) (winter wheat [1]; [14]): 0
Plant response rating, Wheat (winter) (winter wheat [1]; [15]): 0
Plant response rating, Wheat (winter) (winter wheat [1]; Rate 250 g/ha, 0 to 100 scale): 0
Plant response rating, Barley (winter) (winter barley; [14]): 0
Plant response rating, Barley (winter) (winter barley; [15]): 0
Plant response rating, Barley (winter) (winter barley; Rate 250 g/ha, 0 to 100 scale): 0
Plant response rating, Wild oat (wild oat; [14]): 0
Plant response rating, Wild oat (wild oat; [15]): 0
Plant response rating, Green foxtail (green foxtail; [14]): 0
Plant response rating, Green foxtail (green foxtail; [15]): 0
Plant response rating, Green foxtail (green foxtail; Rate 250 g/ha, 0 to 100 scale): 10
Plant response rating, Wheat (winter) (winter wheat [2]; Rate 62 g/ha, 0 to 100 scale): 0
Plant response rating, Wheat (winter) (winter wheat [2]; Rate 125 g/ha, 0 to 100 scale): 0
Plant response rating, Wheat (winter) (winter wheat [2]; [12]): 0
Plant response rating, I. Ryegrass (Italian ryegrass; [14]): 0
Plant response rating, I. Ryegrass (Italian ryegrass; [15]): 0
Plant response rating, I. Ryegrass (Italian ryegrass; Rate 250 g/ha, 0 to 100 scale): 0
Rape plant response rating (rape; [5]): 3
Rape plant response rating (rape; [6]): 3
Rape plant response rating (rape; [7]): 0
Plant response rating, Rape (rape; [8]): 0
Plant response rating, Rape (rape; [9]): 4
Rape plant response rating (rape; [16]): 4
Rape plant response rating (rape; [17]): 3
Rape plant response rating (rape; [11]): 4

CC(C)N(C(=O)n1oc(=O)n(CC(F)(F)F)c1=O)c1ccc(F)cc1 [Compound 163]
Blackgrass plant response rating (0 to 100 scale) (blackgrass; Rate 250 g/ha): 30
Plant response rating, Blackgrass (blackgrass; [20]): 40
Plant response rating, Blackgrass (blackgrass; [3]): 50
Redroot pigweed plant response rating (pigweed; [5]): 2
Redroot pigweed plant response rating (pigweed; [21]): 6
Redroot pigweed plant response rating (pigweed; [16]): 9
Redroot pigweed plant response rating (pigweed; [17]): 0
Plant response rating, Redroot pigweed (pigweed; [18]): 3
Redroot pigweed plant response rating (pigweed; [22]): 3
Sugarbeets plant response rating (sugar beet; [5]): 0
Sugarbeets plant response rating (sugar beet; [23]): 0
Sugarbeets plant response rating (0 to 10 scale) (sugar beet; [19]): 3
Sugarbeets plant response rating (sugar beet; [21]): 4
Sugarbeets plant response rating (sugar beet; [16]): 6
Sugarbeets plant response rating (sugar beet; [17]): 0
Plant response rating, Sugarbeets (sugar beet; [18]): 4
Sugarbeets plant response rating (sugar beet; [22]): 5
Wheat (winter) plant response rating (0 to 100 scale) (winter wheat [1]; Rate 250 g/ha): 30
Plant response rating, Wheat (winter) (winter wheat [1]; [3]): 55
Barley (winter) plant response rating (0 to 100 scale) (winter barley; Rate 250 g/ha): 30
Plant response rating, Barley (winter) (winter barley; [20]): 40
Plant response rating, Barley (winter) (winter barley; [3]): 50
Wild oat plant response rating (0 to 100 scale) (wild oat; Rate 250 g/ha): 50
Plant response rating, Wild oat (wild oat; [20]): 60
Plant response rating, Wild oat (wild oat; [3]): 70
Green foxtail plant response rating (0 to 100 scale) (green foxtail; Rate 250 g/ha): 100
Plant response rating, Green foxtail (green foxtail; [20]): 100
Plant response rating, Green foxtail (green foxtail; [3]): 100
Plant response rating, Wheat (winter) (winter wheat [2]; [13]): 70
Plant response rating, Wheat (winter) (winter wheat [2]; Rate 500 g/ha, 0 to 100 scale, 0 no effect, 100 complete control): 50
Wheat (winter) plant response rating (winter wheat [2]; Rate 250 g/ha, 0 to 100 scale where 0 is no effect and 100 is complete control): 40
I. Ryegrass plant response rating (0 to 100 scale) (Italian ryegrass; Rate 250 g/ha): 30
Plant response rating, I. Ryegrass (Italian ryegrass; [20]): 50
Plant response rating, I. Ryegrass (Italian ryegrass; [3]): 60
Rape plant response rating (rape; [5]): 0
Rape plant response rating (rape; [23]): 0
Rape plant response rating (0 to 10 scale) (rape; Preemergence, Rate 125 g/ha, 0 is no effect, 10 is complete control): 0
Rape plant response rating (rape; [21]): 7
Rape plant response rating (rape; [16]): 8
Rape plant response rating (rape; [17]): 0
Plant response rating, Rape (rape; [18]): 2
Rape plant response rating (rape; [22]): 4
